{"source": "patent EP4778516A1", "about": "“CALCIFICATION ENHANCER FOR OSTEOBLAST MC3T3-E1 CELL” (Watanabe Oyster Laboratory Co., Ltd., priority 2023, dated 2025)", "test_system": "MC3T3-E1 cells", "assay": "Crosstalk (Transwell co-culture) between MC3T3-E1 cells and RAW264.7 cells", "format": "cell-based, mouse", "details": "DHMBA 1 or 10 mM", "description": "To investigate crosstalk between osteoblast MC3T3-E1 cells and macrophage RAW264.7 cells, an assay was performed using Transwell chambers (Corning Inc., Life Sciences, catalog no. CLS3464-48EA, USA) equipped with a polycarbonate filter (pore size […], diameter 6.5 mm). MC3T3-E1 cells (1×10^5 cells per 1 ml medium) were added in a-MEM medium (1 ml) containing 10% FBS and 1% P/S in the lower chamber. RAW264.7 cells were suspended in DMEM containing 10% FBS and 1% P/S, and 0.5 ml of the suspension (5×10^4 cells/ml medium) was added to the upper chamber of each Transwell. RAW264.7 cells were incubated at 37°C for 1 hour under 5% CO2 and 95% air to allow attachment to the upper chamber. The plates equipped with the Transwell chambers were then placed in an incubator at 37°C under 5% CO2 and 95% air. To induce inflammatory conditions in RAW264.7 cells, LPS (100 ng/ml medium) was added to the upper chamber containing RAW264.7 cells. […] MC3T3-E1 cells attached to the dishes (wells) were counted as described in the section \"Cell proliferation assay\". […]\nThereafter, a Transwell chamber was placed in each culture well, and RAW264.7 cells were added to the upper chamber at 0.5 ml (5×10^4 cells/ml medium), in the presence or absence of LPS (100 ng/ml medium). […] Cells attached to the dishes (wells) were counted as described in the section \"Cell proliferation assay\".", "data": [{"smiles": "COc1c(O)cc(CO)cc1O", "note": "[DHMBA, 3,5-dihydroxy-4-methoxybenzyl alcohol]", "values": [{"measurement": "decrease of proliferation of MC3T3-E1 cells by co-culture with RAW264.7 cells", "setting": "LPS 100 ng/ml in upper chamber, 3 days, Fig. 5C", "value": "suppressed"}, {"measurement": "enhancement of death of MC3T3-E1 cells by co-culture with RAW264.7 cells", "setting": "LPS 100 ng/ml, 48 hours, Fig. 5D", "value": "prevented"}]}]}
